Data taken from US7384733B1, “Interface patch clamping” (Xention Discovery Limited, priority 1998, dated 2008).

Molecular target: potassium currents (Kv1.1) in MK1 cell (Mus musculus, UniProt P16388)
Conditions: TEA 5 mM in extracellular solution in the dish, then washing; FIG. 21
Excerpt: The solution may be exchanged readily by perfusion of the dish and this allows multiple drug additions and dose response curves to be obtained while recording from the one cell.
The holding potential was −60 mV and (a) and (b) show outward potassium currents (Kv1.1) in response to a voltage step to +30 mV.

Sequence of potassium currents (Kv1.1) in MK1 cell (P16388 whole entry): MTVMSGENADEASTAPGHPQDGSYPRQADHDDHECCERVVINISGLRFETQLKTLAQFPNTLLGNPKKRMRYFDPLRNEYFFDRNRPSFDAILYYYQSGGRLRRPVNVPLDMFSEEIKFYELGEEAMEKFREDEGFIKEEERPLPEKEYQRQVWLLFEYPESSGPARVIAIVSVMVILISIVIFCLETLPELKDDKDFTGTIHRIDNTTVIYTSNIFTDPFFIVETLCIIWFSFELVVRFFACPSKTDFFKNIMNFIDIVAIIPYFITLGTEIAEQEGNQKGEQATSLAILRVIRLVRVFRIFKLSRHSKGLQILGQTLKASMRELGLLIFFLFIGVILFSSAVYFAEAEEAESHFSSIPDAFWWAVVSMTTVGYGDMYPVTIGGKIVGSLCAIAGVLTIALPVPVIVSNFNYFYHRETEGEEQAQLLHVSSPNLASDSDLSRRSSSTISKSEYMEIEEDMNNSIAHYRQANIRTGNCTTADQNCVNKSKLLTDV

CC[N+](CC)(CC)CC [TEA, tetraethylammonium]
effect on the potassium current recorded from MK1 cell in whole cell recording mode: blocking effect of TEA was reversed by washing
